From PMC11990670, “Exploring the Volatility, Phase Transitions, and Solubility Properties of Five Halogenated Benzaldehydes” (Molecules, 2025)
Values after ≈ are worked out from the molar mass of the structure shown. Read-outs that look alike come from different tables or passages of the source.

Legend:
[1] = Thermodynamic properties of sublimation and vaporization from Clarke and Glew fit of vapor pressures
Excerpt: The experimental crystalline and liquid vapor pressures were independently fitted by the Clarke and Glew Equation (1) in its truncated form:(1) Rlnp/p^°=−ΔcdgGm°θ/θ+ΔcdgHm°θ1/θ−1/T+ΔcdgCp,m°θθ/T−1+lnT/θ where R is the molar gas constant, p is the vapor pressure at the temperature T, p° is a selected reference pressure (p° = 10^5 Pa in this work), and θ is a reference temperature. The differences between gaseous and condensed phases of standard molar Gibbs energy, enthalpy, and the isobaric heat capacity are represented, respectively, by ΔcdgGm° , ΔcdgHm° , and ΔcdgCp,m° .
The values of ΔcdgCp,m° are generally achieved only when accurate experimental data measured over ca. 50 K are reachable. […] For comparison reasons, the values of ΔcrgCp,m° were also calculated as ΔcrgCp,m°(θ)=Cp,m°(g)−Cp,m°(cr) , where the terms Cp,m°(g) and Cp,m°(cr) are, respectively, the gas and crystalline isobaric molar heat capacities. […] The crystalline molar heat capacities, Cp,m°(cr) , were determined at different temperatures using differential scanning calorimetry, enabling the fit to second-order polynomials in temperature, represented by Equation (3) and reported in Table 3. […] The values of Cp,m°(cr,298.15 K) were derived from these equations, allowing ΔcrgCp,m°(298.15 K) to be calculated.

[2] = Equilibrium solubility in water, saturation shake-flask method with UV-vis; details: 25 °C, thermodynamic from solid
Procedure: (§1) The concentration was measured by absorbances at 260 nm for 4-chlorobenzaldehyde, 263 nm for 4-bromobenzaldehyde and 2,4-dichlorobenzaldehyde, 297 nm for 2,6-dichlorobenzaldehyde, and 306 nm for 2,3-dichlorobenzaldehyde, using a Cary-60 UV–vis (Agilent) spectrophotometer. X-ray diffraction (XRD) and differential scanning calorimetry of residual solids were used to identify the eventual phase transformations. The purified samples of each compound studied were used for all experimental determinations, including the solubility measurements. After reaching the equilibrium, the residual solid was dried and analyzed using both DSC and XRD. The melting properties obtained from DSC were compared with those of the original purified sample, following the same procedure for the XRD analysis. […] As an example, the supporting information includes two thermograms and two XRD patterns for 2,4-dichlorobenzaldehyde (Figures S1 and S2). […] Equation (4) was derived from Equation (5), which is widely applicable to the solubility of solids.(4) ΔhydrGm°/kJ·mol^−1=9.17−5.71·log10(Scr/mol·m^−3)−ΔcrgGm°/kJ·mol^−1 (5) S=p^°/RTexpΔcrgGm°+ΔhydrGm°/−RT
An excess amount of each compound was added to a known volume of water in triplicate. […] After stirring, the solid phase was allowed to settle for 2 h. The pH of the saturated solutions was measured using a Mettler Toledo (Greifensee, Switzerland) FiveEasy F20 pH Meter calibrated with standard aqueous solutions (pH 7.00 and 4.01 or 10.1). Those solutions were then filtered through a 0.22 μm syringe hydrophilic filter (13 mm, PTFE, Labfil, Zhejiang, China) and diluted to the required concentration. The concentration of the compounds, expressed in molarity, was measured by absorbances using a Cary-60 UV–vis spectrophotometer (Agilent Technologies, Santa Clara, CA, USA) at 298.15 K (single cell Peltier accessory, ±0.15 K). The results reported in Table 6 are averaged from at least three replicates. Calibration was performed using solutions of known concentrations of each substance in water. These solutions were prepared by adding a precise mass of the substance and a specific volume of the solvent to a flask, then mixing until the substance was fully dissolved. The absorbance of these solutions was measured, and calibration curves were created.

[3] = Gibbs energy of hydration and Henry's law volatility constant calculated from sublimation and solubility data; details: 25 °C
Procedure: as §1
The standard states in Equation (5) are p° = 1 × 10^5 Pa for ΔcrgGm° , c° = 1 mol·L^−1 for ΔhydrGm° and s° = 1 mol·m^−3 for solubility. Using the experimental results of ΔhydrGm° , calculated through Equation (4), the values of Henry’s law volatility constants, KHpc, were determined in the logarithm form by Equation (6), that was adapted from Modarressi et al..

[4] = 20 °C, cited from earlier work
[5] = cited from earlier work
[6] = crystalline phase, θ = 291.18 K (mean temperature)
[7] = crystalline phase, θ = 298.15 K, p° = 10^5 Pa
[8] = crystalline phase, θ = 319.43 K (triple point)
[9] = liquid phase including supercooled liquid, θ = 298.15 K, p° = 10^5 Pa
[10] = liquid phase, θ = 319.43 K (triple point)
[11] = liquid phase, θ = 331.52 K (mean temperature)

SMILES: O=Cc1ccc(Cl)cc1 [4-Chlorobenzaldehyde]
- triple point pressure ptp ([1]; Ttp = 319.43 K): 1.23 × 10^2 Pa
- p (Equation (1)) vapor pressure [1, 6]: 8.54 Pa
- ΔcdgGm°(θ) standard molar Gibbs energy of sublimation [1, 6]: 5.421 ± 0.0024 kcal/mol
- ΔcdgHm°(θ) standard molar enthalpy of sublimation [1, 6]: 17.6 ± 0.024 kcal/mol
- p (Equation (1)) vapor pressure ([1]; crystalline phase, θ = 298.15 K): 17.3 Pa
- ΔcdgGm°(θ) standard molar Gibbs energy of sublimation [1, 7]: 5.131 ± 0.0024 kcal/mol
- ΔcdgHm°(θ) standard molar enthalpy of sublimation [1, 7]: 17.5 ± 0.048 kcal/mol
- ΔcdgSm°(θ) (Equation (2)) standard molar entropy of sublimation [1, 7]: 173.8 ± 0.7 J·K^−1·mol^−1
- p (Equation (1)) vapor pressure [1, 8]: 123 Pa
- ΔcdgGm°(θ) standard molar Gibbs energy of sublimation [1, 8]: 4.252 ± 0.0048 kcal/mol
- ΔcdgHm°(θ) standard molar enthalpy of sublimation [1, 8]: 17.4 ± 0.14 kcal/mol
- p (Equation (1)) vapor pressure ([1]; liquid phase including supercooled liquid, θ = 298.15 K): 27.3 Pa
- ΔcdgGm°(θ) standard molar Gibbs energy of vaporization [1, 9]: 4.861 ± 0.0072 kcal/mol
- ΔcdgHm°(θ) standard molar enthalpy of vaporization [1, 9]: 13.6 ± 0.14 kcal/mol
- ΔcdgSm°(θ) (Equation (2)) standard molar entropy of vaporization [1, 9]: 122.0 ± 2.0 J·K^−1·mol^−1
- p (Equation (1)) vapor pressure [1, 10]: 123 Pa
- ΔcdgGm°(θ) standard molar Gibbs energy of vaporization [1, 10]: 4.252 ± 0.0048 kcal/mol
- ΔcdgHm°(θ) standard molar enthalpy of vaporization [1, 10]: 13.2 ± 0.048 kcal/mol
- p (Equation (1)) vapor pressure [1, 11]: 262 Pa
- ΔcdgGm°(θ) standard molar Gibbs energy of vaporization [1, 11]: 3.917 ± 0.0024 kcal/mol
- ΔcdgHm°(θ) standard molar enthalpy of vaporization [1, 11]: 13 ± 0.024 kcal/mol
- solubility at 72 h [2]: 8.83 mM (≈ 1240 µg/mL)
- Gibbs energy of hydration ΔhydrGm° ([3]; calculated by Equation (4)): -4.23 kcal/mol
- log10(KHpc/kPa·m^3·mol^−1) Henry's law volatility constant ([3]; calculated by Equation (6)): −2.71
- KHpc×10^3 Henry's law volatility constant ([3]; value is KHpc multiplied by 10^3): 1.95 kPa·m^3·mol^−1
- water solubility ([4]; converted from 935 mg/L): 6.652 mM
- water solubility [4]: 935 µg/mL
- water solubility, estimated value ([5]; 25 °C, converted from 1340 mg/L): 9.532 mM
- water solubility, estimated value ([5]; 25 °C): 1340 µg/mL
- water solubility, estimated value ([5]; ALI method): 8.15 mM
- water solubility, estimated value ([5]; ESOL method): 3.45 mM
- water solubility, estimated value ([5]; SILICO-IT method): 1.16 mM
